Source: patent publication US20240383911A1, “AZAINDAZOLE MACROCYCLE COMPOUNDS AND USES THEREOF” (BROADENBIO CO., LTD, priority 2021, published 2024)
pIC50: −log10 of the molar value.

How the values were obtained:
HPK1 = HPK1 (Homo sapiens, UniProt Q92918); assay: HPK1 kinase activity inhibition test (ADP-Glo, luminescence); type: biochemical; settings: 2 μM ATP, 5 nM HPK1, read-out: IC50, inhibitory effects on HPK1 kinase activity
Summary of the method: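 Autophosphorylation assay without added substrate: HPK1 preincubated with compound 10 min at 25 °C, then ATP added for 60 min at 25 °C; final DMSO 0.5%. ADP measured by ADP-Glo luminescence; IC50 from four-parameter nonlinear fit.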

MV-4-11 cells = assay: Detection of MV-4-11 cell activity (CellTiter-Glo); type: cell-based; settings: Homo sapiens, MV4-11, 120 h, 5 days, CTG, read-out: IC50, inhibitory effects on MV-4-11 cell activity
Protocol: The CellTiter-Glo (CTG) luminescence method was used to detect the effect of compounds on the activity of MV-4-11 cells.
Tested compounds: compound prepared in the Examples of the present invention.
Add 100 μL containing 20,000 MV-4-11 (human myeloid monocytic leukemia cells, from the Cell Bank of the Chinese Academy of Sciences, Cat. No. SCSP-5031) cell suspension to 96-well flat-bottom clear-bottomed cell plates (Corning, Cat #3603), and then add 100 μL of cell culture medium containing a series of concentrations of the compound to be tested, with a total volume of 200 μL per well. The final gradient concentrations of the compounds were 500 nM, 125 nM, 31.25 nM, 7.813 nM, 1.953 nM, 0.488 nM, 0.122 nM, 0.031 nM, and 0.008 nM, and the final DMSO content was 0.5%. Set cells with the cell culture medium containing 0.5% DMSO but without compounds as the 100% control; set the culture medium wells without cells as 0% background control. Incubate the cell plate in a humidified incubator at 37° C. and 5% CO2 for 5 days. After 5 days, take out the cell plate, centrifuge (1000 rpm) for 5 minutes, remove and discard 100 μL supernatant, add 100 μL CTG reagent (Promega, Cat #G7572) to each well, shake at room temperature for 10 minutes to promote cell lysis, and incubate at room temperature for 30 minutes to stabilize the luminescence signal. Use a microplate reader (Molecular Device, i3X) to read the Luminescent fluorescence value, use GraphPad Prism 5.0 software to analyze the original data, use nonlinear S-curve regression to fit the data to obtain the dose-effect curve (cell survival rate %), and calculate the IC50 value.

FLT3 = molecular target: T1, FLT3 (Homo sapiens, UniProt P36888); assay: FLT3 kinase activity inhibition test (HTRF); type: biochemical; settings: read-out: IC50, inhibitory effects on FLT3 kinase activity
T1 sequence (P36888 27-993): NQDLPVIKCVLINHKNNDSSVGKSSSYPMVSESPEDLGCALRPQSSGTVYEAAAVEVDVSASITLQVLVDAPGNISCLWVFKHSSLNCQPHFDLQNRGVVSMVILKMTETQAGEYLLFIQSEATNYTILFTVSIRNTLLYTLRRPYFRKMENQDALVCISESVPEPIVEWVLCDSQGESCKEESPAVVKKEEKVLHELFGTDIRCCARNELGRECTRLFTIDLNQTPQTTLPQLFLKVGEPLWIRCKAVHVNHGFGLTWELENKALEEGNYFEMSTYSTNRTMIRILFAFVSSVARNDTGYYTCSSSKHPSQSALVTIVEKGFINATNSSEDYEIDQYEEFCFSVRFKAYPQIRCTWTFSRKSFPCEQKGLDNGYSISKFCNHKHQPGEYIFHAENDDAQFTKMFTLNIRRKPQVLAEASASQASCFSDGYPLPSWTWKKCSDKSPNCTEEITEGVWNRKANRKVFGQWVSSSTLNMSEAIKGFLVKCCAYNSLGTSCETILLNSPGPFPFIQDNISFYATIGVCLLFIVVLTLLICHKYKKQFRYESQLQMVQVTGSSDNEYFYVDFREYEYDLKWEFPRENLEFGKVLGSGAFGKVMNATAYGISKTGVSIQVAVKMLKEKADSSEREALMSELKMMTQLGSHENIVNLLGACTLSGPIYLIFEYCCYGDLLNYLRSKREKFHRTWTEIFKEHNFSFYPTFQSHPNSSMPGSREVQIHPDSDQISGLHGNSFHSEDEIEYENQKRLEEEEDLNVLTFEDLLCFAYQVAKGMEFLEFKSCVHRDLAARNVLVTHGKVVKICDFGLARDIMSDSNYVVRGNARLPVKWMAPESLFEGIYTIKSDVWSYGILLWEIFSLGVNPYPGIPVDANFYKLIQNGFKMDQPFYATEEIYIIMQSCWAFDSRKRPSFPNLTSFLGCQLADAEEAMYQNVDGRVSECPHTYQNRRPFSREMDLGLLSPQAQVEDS
Protocol: (§1) Tested compounds: compounds prepared in the Examples of this invention.
(§2) Prepare compound stock solution: dissolve the test compound in 100% DMSO to make a 10 mM stock solution. Dilute the stock solution of the test compound by 5 times with 100% DMSO, make a 4-fold equal dilution in a 96-well dilution plate, add 1 μL of the compound to 39 μL of kinase reaction buffer (1×kinase buffer, 5 mM MgCl2, 1 mM DTT), and shake on a microplate shaker for 20 minutes. 4×Positive control (4 μL of positive compound solution of the starting concentration, add 196 μL of kinase buffer) and 4×negative control (4 μL of 100% DMSO, add 196 μL of kinase buffer).
(§3) (1) Use 1×kinase reaction buffer to prepare 2.5×FLT3 kinase solution (160 μM), transfer 2 μL of the kinase solution to the 384 reaction plate, and add 1 μL of the test compound solution of gradient concentration to the 384 reaction plate (Greiner, Cat #784075), centrifuge for 1 minute (1000 rpm), and incubate at 25° C. for 10 minutes.
(§4) (2) Use 1×kinase reaction buffer to prepare 2.5×TK-substrate-biotin (2.5 μM) and 2.5×ATP (2.5 μM), mix well, and add 2 μL of the TK-substrate-biotin/ATP solution to the 384 reaction plate, centrifuge for 30 seconds (1000 rpm), and incubate at 25° C. for 40 minutes.
(§5) (3) Use HTRF detection buffer to prepare 2×Sa-XL 665 (125 nM) and 1×TK-antibody-Cryptate. Add 5 μL of a mixture of Sa-XL 665 and TK-antibody-Cryptate solutions to each well, centrifuge for 30 seconds (1000 rpm), and react at room temperature for 1 hour.
(§6) (4) The fluorescence signal is read using a Biotek multi-function plate reader, and the IC50 (half inhibitory concentration) of the compound is obtained using a four-coefficient nonlinear fitting formula.

KDR = KDR (Homo sapiens, UniProt P35968); assay: KDR kinase activity inhibition test (HTRF); type: biochemical; settings: read-out: IC50, inhibitory effects on KDR kinase activity
Protocol: as §1, §2
as §3, with “2.5×KDR” for “2.5×FLT3”, “(250” for “(160”
as §4, §5, §6

Human Jurkat-E6-1 cells = assay: Detection of IL-2 production by Jurkat cells using ELISA; type: cell-based; settings: anti-CD3/anti-CD28 stimulation 24 hours, read-out: Percentage of the amount of IL-2 secreted by compound treated vs DMSO-treated cells; for activity at 0.33 µM: tested compound 0.33 μM
Summary of the method: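 Jurkat E6-1 cells were pre-incubated with compound for 30 min at 37 °C, then stimulated 24 h on plate-bound anti-CD3 plus soluble anti-CD28. Secreted IL-2 in supernatant was measured by sandwich ELISA (450 nm) against a standard curve and expressed as % of DMSO-treated cells.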

Chain of KDR (P35968 20-1356): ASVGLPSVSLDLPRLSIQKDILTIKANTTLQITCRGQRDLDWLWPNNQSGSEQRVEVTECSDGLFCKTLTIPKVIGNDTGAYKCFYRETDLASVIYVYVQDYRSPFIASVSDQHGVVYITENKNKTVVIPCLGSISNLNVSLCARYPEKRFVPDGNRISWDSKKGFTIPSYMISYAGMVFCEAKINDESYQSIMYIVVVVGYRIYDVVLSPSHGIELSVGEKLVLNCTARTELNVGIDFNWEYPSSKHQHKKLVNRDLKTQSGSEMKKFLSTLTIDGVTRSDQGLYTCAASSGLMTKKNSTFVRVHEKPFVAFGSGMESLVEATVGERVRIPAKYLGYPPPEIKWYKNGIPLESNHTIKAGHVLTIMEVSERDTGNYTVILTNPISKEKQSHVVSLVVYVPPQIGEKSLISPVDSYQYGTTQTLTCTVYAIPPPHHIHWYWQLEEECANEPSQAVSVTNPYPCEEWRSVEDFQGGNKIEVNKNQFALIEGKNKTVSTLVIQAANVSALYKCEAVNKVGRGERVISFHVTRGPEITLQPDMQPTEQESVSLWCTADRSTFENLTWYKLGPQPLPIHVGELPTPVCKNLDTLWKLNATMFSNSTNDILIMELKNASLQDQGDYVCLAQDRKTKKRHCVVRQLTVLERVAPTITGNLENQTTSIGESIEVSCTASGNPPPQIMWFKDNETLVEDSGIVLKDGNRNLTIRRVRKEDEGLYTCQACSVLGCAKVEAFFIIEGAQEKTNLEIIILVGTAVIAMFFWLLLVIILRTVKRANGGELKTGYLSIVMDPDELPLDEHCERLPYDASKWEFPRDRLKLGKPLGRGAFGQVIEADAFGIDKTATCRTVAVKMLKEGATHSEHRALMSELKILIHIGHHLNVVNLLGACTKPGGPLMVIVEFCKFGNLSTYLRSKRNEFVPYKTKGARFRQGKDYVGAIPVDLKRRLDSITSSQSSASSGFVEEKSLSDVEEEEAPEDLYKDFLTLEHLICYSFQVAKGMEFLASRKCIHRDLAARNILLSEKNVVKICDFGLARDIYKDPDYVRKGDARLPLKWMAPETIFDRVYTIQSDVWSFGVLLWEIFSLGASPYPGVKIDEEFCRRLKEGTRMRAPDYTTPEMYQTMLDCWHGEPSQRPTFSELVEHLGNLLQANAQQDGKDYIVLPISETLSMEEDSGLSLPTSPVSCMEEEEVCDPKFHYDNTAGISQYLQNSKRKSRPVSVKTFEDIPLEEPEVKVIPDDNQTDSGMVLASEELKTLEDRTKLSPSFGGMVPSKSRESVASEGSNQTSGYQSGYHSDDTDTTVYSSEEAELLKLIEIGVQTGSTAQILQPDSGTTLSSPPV
Chain of HPK1 (Q92918 whole entry): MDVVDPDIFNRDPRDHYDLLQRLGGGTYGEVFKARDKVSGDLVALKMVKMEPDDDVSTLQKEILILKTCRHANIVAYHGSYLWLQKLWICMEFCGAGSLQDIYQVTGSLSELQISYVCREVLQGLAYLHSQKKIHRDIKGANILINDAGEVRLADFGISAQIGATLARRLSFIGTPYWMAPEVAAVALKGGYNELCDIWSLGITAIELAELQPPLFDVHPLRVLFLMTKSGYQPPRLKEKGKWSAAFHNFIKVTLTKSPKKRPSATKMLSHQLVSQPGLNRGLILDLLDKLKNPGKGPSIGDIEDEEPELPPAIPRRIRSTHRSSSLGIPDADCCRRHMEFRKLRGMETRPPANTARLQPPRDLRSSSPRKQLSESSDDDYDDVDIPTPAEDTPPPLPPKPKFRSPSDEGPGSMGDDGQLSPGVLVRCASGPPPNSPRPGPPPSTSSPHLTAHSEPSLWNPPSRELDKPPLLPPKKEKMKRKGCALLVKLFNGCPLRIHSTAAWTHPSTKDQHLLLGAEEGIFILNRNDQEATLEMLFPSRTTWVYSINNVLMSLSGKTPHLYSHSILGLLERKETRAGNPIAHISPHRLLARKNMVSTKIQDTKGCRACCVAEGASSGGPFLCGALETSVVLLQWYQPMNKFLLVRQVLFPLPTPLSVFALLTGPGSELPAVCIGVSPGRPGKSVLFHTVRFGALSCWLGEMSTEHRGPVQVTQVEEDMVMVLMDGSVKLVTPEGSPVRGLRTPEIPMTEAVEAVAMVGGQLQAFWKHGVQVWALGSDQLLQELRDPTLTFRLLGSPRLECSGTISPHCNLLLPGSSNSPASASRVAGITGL

| Structure (SMILES) | pIC50 (HPK1) | pIC50 (MV-4-11 cells) | pIC50 (FLT3) | pIC50 (KDR) | activity at 0.33 µM (Human Jurkat-E6-1 cells) [%] | activity at 3 µM (Human Jurkat-E6-1 cells; tested compound 3.0 μM) [%] |
| --- | --- | --- | --- | --- | --- | --- |
| CN1CCN(c2ccc3cc2OCCCOCc2cccc(F)c2-c2cc4c-3n[nH]c4cn2)C[C@H]1CO [Compound 122, [(2S)-4-{17-fluoro-7,11-dioxa-20,23,24-triazapentacyclo[17.5.2.1^2,6.0^13,18.0^22,25]heptacosa-1(24),2,4,6(27),13(18),14,16,19,21,25-decaen-5-yl}-1-methylpiperazin-2-yl]methanol] | ≥ 8.30 | – | ≥ 8.30 | ≥ 8.30 | 345 | – |
| Fc1cccc2c1-c1cc3c(n[nH]c3cn1)-c1ccc(N3CCOCC3)c(c1)OCCCO2 [Compound 5, 16-fluoro-5-(morpholin-4-yl)-7,11-dioxa-19,22,23-triazapentacyclo[16.5.2.1^2,6.0^12,17.0^21,24]hexacosa-1(23),2(26),3,5,12,14,16,18,20,24-decaene] | 7.30 to 8.30 | 7.30 | – | – | – | 717 |
| O[C@H]1COc2cc(ccc2N2CCN3CCOC[C@H]3C2)-c2n[nH]c3cnc(cc23)-c2c(F)cccc2OC1 [Compound 119, (9R)-5-[(9aR)-octahydropyrazino[2,1-c][1,4]oxazin-8-yl]-16-fluoro-7,11-dioxa-19,22,23-triazapentacyclo[16.5.2.1^2,6.0^12,17.0^21,24]hexacosa-1(23),2,4,6(26),12(17),13,15,18,20,24-decaen-9-ol] | 7.30 to 8.30 | – | ≥ 8.30 | ≥ 8.30 | 591 | – |

The next lines start with results.

| pIC50 (HPK1) | pIC50 (MV-4-11 cells) | pIC50 (FLT3) | pIC50 (KDR) | Structure (SMILES) | activity at 0.33 µM (Human Jurkat-E6-1 cells) [%] | activity at 3 µM (Human Jurkat-E6-1 cells; tested compound 3.0 μM) [%] |
| --- | --- | --- | --- | --- | --- | --- |
| ≥ 8.30 | 8.21 | ≥ 8.30 | ≥ 8.30 | CN1CCN(c2ccc3cc2OCCCOCc2cccc(F)c2-c2cc4c-3n[nH]c4cn2)CC1 [Compound 11, 17-fluoro-5-(4-methylpiperazin-1-yl)-7,11-dioxa-20,23,24-triazapentacyclo[17.5.2.1^2,6.0^13,18.0^22,25]heptacosa-1(24),2(27),3,5,13,15,17,19,21,25-decaene] | – | – |
| ≥ 8.30 | – | ≥ 8.30 | ≥ 8.30 | Fc1cccc2c1-c1cc3c(n[nH]c3cn1)-c1ccc(N3CCN4CCOC[C@H]4C3)c(c1)OCCCOC2 [Compound 103, 5-[(9aR)-octahydropyrazino[2,1-c][1,4]oxazin-8-yl]-17-fluoro-7,11-dioxa-20,23,24-triazapentacyclo[17.5.2.1^2,6.0^13,18.0^22,25]heptacosa-1(24),2,4,6(27),13(18),14,16,19,21,25-decaene] | 580 | – |
